Laboratory results: patent US8497271B2, “Modulators of G protein-coupled receptor 88” (Bristol-Myers Squibb Company, priority 2009, dated 2013)
Read-outs that look alike come from different tables or passages of the source.

Target: G protein-coupled receptor 88 (Homo sapiens, UniProt Q9GZN0)
Test: EC50 of select compounds as GPR88 modulators (Table 2; GTPγS assay and cAMP HTRF assay are both described, and the one used is not stated)
Assay type: cell-based
Settings: read-out: Range (EC50)
Experimental: 96 well GTPγS assay plates were purchased from Perkin Elmer. Wheat Germ Agglutinin PVT SPA beads and ^35S-GTPγS were purchased from Amersham GDP, GTPγS and all buffer reagents were from Sigma. 384 well white NBS plates were purchased from corning. Pertussis toxin was purchased from Calbiochem. All cell culture reagents were purchased from Invitrogen. Forskolin was purchased from Sigma. The cAMP HTRF kit was purchased fron Cisbio International.
The GTPγS assay buffer consisted of 10 mM MgCl2, 180 mM NaCl, 200 uM GDP, 0.167 mg/ml DTT, 1 mM EGTA and 20 mM HEPES pH7.4. This buffer was used for dilution of membranes, beads, and ^35S GTPγS components. To each well of the 96 well assay plate 48 ul assay buffer, 2 ul of 100× compound, 50 ul membrane solution (0.2 ug/ul), 50 ul ^35S GTPγS solution (0.8 nM) and 50 ul of SPA beads (10 mg/ml). Non-specific binding was determined by the addition of cold GTPγS to control wells. The plates were sealed with clear sealing tape and incubated at room temperature for 1 hour. GTPγS activity was detected using a Wallac Micro-Beta Trilux liquid scintillation counter. Non-specific binding was determined using 10 uM cold GTPγS.
The cAMP HTRF assay is modified from the Cisbio International kit procedure 62AM4PEJ. Assay plates were prepared by stamping 0.1 ul of 100× compound stock solutions diluted in DMSO or DMSO alone into 384 well NBS plates. The cAMP HTRF assay was performed using cells in suspension. The cAMP HTRF assay buffer consisted of Hank's Balanced Salt Solution (HBSS), 2 mM CaCl2, 5 mM MgCl2, 20 mM HEPES and 1 mM 3-isobutyl-1-methylxanthine (IBMX) (added fresh at the time of assay). For pertussis toxin treatment pertussis toxin (100 ng/ml) was added to culture medium for 16 hours prior to assay. Confluent cells were disrupted with cell dissociation buffer count cells then centrifuged at 1000×g for minutes. The cell pellet was resuspended in assay buffer alone for basal cAMP measurements or with 0.75 uM forskolin (added immediately prior to addition to wells) for addition to all other wells. Using a Multidrop 384 (Lab systems) 10 ul of cell suspension was added to each well containing compound or DMSO. The plates were incubated at room temperature for 30 minutes covered. During this time the cAMP standard curve was prepared as per manufacturer's instruction. At the end of the incubation 10 ul of anti-cAMP cryptate and 10 ul cAMP-XL, diluted in manufacturer's lysis buffer, were added to each well. The plated were incubated at room temperature for 60 minutes covered then read on an Envision plate reader (Perkin Elmer) and the 665 nm/620 nm fluorescence ratio determined Fluorescence ratio values were converted to molar cAMP concentrations from the standard curve using the GraphPad Prism program.

G protein-coupled receptor 88, sequence (Q9GZN0 whole entry, species assumed): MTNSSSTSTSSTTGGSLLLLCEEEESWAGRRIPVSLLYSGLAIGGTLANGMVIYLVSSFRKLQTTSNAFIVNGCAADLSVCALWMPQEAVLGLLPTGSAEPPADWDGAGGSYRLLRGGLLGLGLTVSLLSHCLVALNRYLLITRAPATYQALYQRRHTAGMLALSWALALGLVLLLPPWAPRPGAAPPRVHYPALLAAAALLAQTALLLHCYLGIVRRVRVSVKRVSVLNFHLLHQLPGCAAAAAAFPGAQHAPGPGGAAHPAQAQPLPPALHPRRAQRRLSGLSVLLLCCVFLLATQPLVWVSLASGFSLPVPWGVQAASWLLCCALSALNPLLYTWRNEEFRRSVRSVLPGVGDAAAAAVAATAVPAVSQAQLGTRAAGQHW

EC50 (numeric value printed) [nM] | SMILES | EC50 (class symbol X) [nM]
– | CCC(CC)COc1ccc([C@H](CO)NC(=O)[C@H]2C[C@@H]2c2ccccc2)c(OC)c1 [Example 3, (1S,2S)-2-Phenyl-cyclopropanecarboxylic acid {(R)-1-[4-(2-ethyl-butoxy)-2-methoxy-phenyl]-2-hydroxy-ethyl}-amide] | 62 to 130
81 | Cc1ccc(-c2ccc([C@H](CO)NC(=O)C3CC3c3cccs3)cc2)cc1 (stereo in doubt) [Example 5, (1S,2S)-2-Thiophen-2-yl-cyclopropanecarboxylic acid [(R)-2-hydroxy-1-(4′-methyl-biphenyl-4-yl)-ethyl]-amide] | –
– | COc1cc(-c2ccc(C)cc2)ccc1[C@H](CO)NC(=O)[C@H]1C[C@@H]1c1cccs1 [Example 12, (1S,2S)-2-Thiophen-2-yl-cyclopropanecarboxylic acid [(R)-2-hydroxy-1-(3-methoxy-4′-methyl-biphenyl-4-yl)-ethyl]-amide] | 62 to 130
74 | CCCC(C)COc1ccc([C@H](CO)NC(=O)[C@H]2C[C@@H]2c2cccs2)cc1 (stereo partly drawn) [Example 15, (1S,2S)-2-Thiophen-2-yl-cyclopropanecarboxylic acid {(R)-2-hydroxy-1-[4-(2-methyl-pentyloxy)-phenyl]-ethyl}-amide] | –

SMILES | EC50 (numeric value printed) [nM] | EC50 (class symbol X) [nM]
CC[C@H](C)COc1ccc([C@H](CO)NC(=O)[C@H]2C[C@@H]2c2cccs2)cc1 [Example 6, (1S,2S)-2-Thiophen-2-yl-cyclopropanecarboxylic acid {(R)-2-hydroxy-1-[4-((S)-2-methyl-butoxy)-phenyl]-ethyl}-amide] | 124 | –
